According to ChEMBL document CHEMBL3297720, “Synthesis and evaluation of N-alkyl-9-aminoacridines with antibacterial activity” (2014):
Converted amounts (≈) assume the structure as drawn. The source made the active and inactive calls. The calls are words filed in the database; no cut-off is given here.

What was measured:
Staphylococcus aureus [1] = assay: Antibacterial activity against methicillin-sensitive Staphylococcus aureus […] 8545 after 16 to 20 hrs by broth microdilution assay; format: functional
Staphylococcus aureus [2] = assay: Antibacterial activity against methicillin-resistant Staphylococcus aureus ATCC 43300 after 16 to 20 hrs by broth microdilution assay; format: functional
Staphylococcus aureus [3] = assay: Antibacterial activity against methicillin-resistant Staphylococcus aureus IDRL 6169 after 16 to 20 hrs by broth microdilution assay; format: functional
Nucleic Acid = assay: Binding affinity to relaxed plasmid DNA (unknown origin) assessed as DNA intercalation at 4 to 100 uM after 10 mins by gel electrophoresis in presence of human topoisomerase 1; format: nucleic-acid assay

Work on `CCCCCCCCCCCCCCNc1c2ccccc2nc2ccccc12` yielded an MIC99 (Staphylococcus aureus [1]) of 2.98 µM (≈ 1.16 µg/mL), an MIC99 (Staphylococcus aureus [2]) of 3.07 µM (≈ 1.2 µg/mL) and an MIC99 (Staphylococcus aureus [3]) of 2.15 µM (≈ 0.84 µg/mL).

`CCCCCNc1c2ccccc2nc2cc(C(=O)N3CCN(C)CC3)ccc12` showed an MIC99 (Staphylococcus aureus [1]) of over 100 µM, an MIC99 (Staphylococcus aureus [2]) of over 100 µM and an MIC99 (Staphylococcus aureus [3]) of over 100 µM.

Work on `CCCNc1c2ccccc2nc2ccccc12` yielded an MIC99 (Staphylococcus aureus [1]) of over 100 µM, an MIC99 (Staphylococcus aureus [2]) of over 100 µM and an MIC99 (Staphylococcus aureus [3]) of over 100 µM. The Activity (Nucleic Acid) was “Active”.

Work on `CCCCCCCNc1c2ccccc2nc2cc(C(=O)N3CCN(C)CC3)ccc12` yielded an MIC99 (Staphylococcus aureus [1]) of over 100 µM, an MIC99 (Staphylococcus aureus [2]) of over 100 µM and an MIC99 (Staphylococcus aureus [3]) of over 100 µM.

Work on `CCCCCCCNc1c2ccccc2nc2ccccc12` yielded an MIC99 (Staphylococcus aureus [1]) of 27.5 µM (≈ 8.05 µg/mL), an MIC99 (Staphylococcus aureus [2]) of 24.5 µM (≈ 7.16 µg/mL) and an MIC99 (Staphylococcus aureus [3]) of 22.9 µM (≈ 6.68 µg/mL).

`CCCCCCCCCCNc1c2ccccc2nc2cc(C(=O)N3CCN(C)CC3)ccc12` gave an MIC99 (Staphylococcus aureus [1]) of 12 µM (≈ 5.51 µg/mL), an MIC99 (Staphylococcus aureus [2]) of 12.2 µM (≈ 5.6 µg/mL) and an MIC99 (Staphylococcus aureus [3]) of 10.7 µM (≈ 4.95 µg/mL). The Activity (Nucleic Acid) was “inactive”.

`CCCCCCCCCCCCCCCNc1c2ccccc2nc2ccccc12` showed an MIC99 (Staphylococcus aureus [1]) of 5.69 µM (≈ 2.3 µg/mL), an MIC99 (Staphylococcus aureus [2]) of 6.1 µM (≈ 2.47 µg/mL) and an MIC99 (Staphylococcus aureus [3]) of 3.21 µM (≈ 1.3 µg/mL).

For `CCCCCCCCCCNc1c2ccccc2nc2ccccc12`, the MIC99 (Staphylococcus aureus [1]) was 2.61 µM (≈ 0.873 µg/mL), the MIC99 (Staphylococcus aureus [2]) was 2.19 µM (≈ 0.733 µg/mL) and the MIC99 (Staphylococcus aureus [3]) was 3.29 µM (≈ 1.1 µg/mL). The Activity (Nucleic Acid) was “inactive”.

`CCCCNc1c2ccccc2nc2cc(C(=O)N3CCN(C)CC3)ccc12` was tested, and the MIC99 (Staphylococcus aureus [1]) was over 100 µM, the MIC99 (Staphylococcus aureus [2]) was over 100 µM and the MIC99 (Staphylococcus aureus [3]) was over 100 µM.

With `CCCCCCCCCCCCCCCCNc1c2ccccc2nc2ccccc12` the MIC99 (Staphylococcus aureus [1]) was 26.2 µM (≈ 11 µg/mL), the MIC99 (Staphylococcus aureus [2]) was 24.7 µM (≈ 10.3 µg/mL) and the MIC99 (Staphylococcus aureus [3]) was 10.1 µM (≈ 4.25 µg/mL).

For `CCCCCCNc1c2ccccc2nc2ccccc12`, the MIC99 (Staphylococcus aureus [1]) was over 100 µM, the MIC99 (Staphylococcus aureus [2]) was 50.6 µM (≈ 14.1 µg/mL) and the MIC99 (Staphylococcus aureus [3]) was 46.9 µM (≈ 13.1 µg/mL).

With `CCCCCCCCCCCCCCCNc1c2ccccc2nc2cc(C(=O)N3CCN(C)CC3)ccc12` the MIC99 (Staphylococcus aureus [1]) was 5.91 µM (≈ 3.14 µg/mL), the MIC99 (Staphylococcus aureus [2]) was 4.59 µM (≈ 2.44 µg/mL) and the MIC99 (Staphylococcus aureus [3]) was 8.59 µM (≈ 4.56 µg/mL).

Compound `CCCCCCCCCCCCCCNc1c2ccccc2nc2cc(C(=O)N3CCN(C)CC3)ccc12` has an MIC99 (Staphylococcus aureus [1]) of 6.25 µM (≈ 3.23 µg/mL), an MIC99 (Staphylococcus aureus [2]) of 5.82 µM (≈ 3.01 µg/mL) and an MIC99 (Staphylococcus aureus [3]) of 6.13 µM (≈ 3.17 µg/mL).

`CCCCCCCCCCCCNc1c2ccccc2nc2ccccc12` showed an MIC99 (Staphylococcus aureus [1]) of 2.88 µM (≈ 1.04 µg/mL), an MIC99 (Staphylococcus aureus [2]) of 2.88 µM (≈ 1.04 µg/mL) and an MIC99 (Staphylococcus aureus [3]) of 2.73 µM (≈ 0.99 µg/mL).

In the case of `CCCCCCCCCCCCCCCCNc1c2ccccc2nc2cc(C(=O)N3CCN(C)CC3)ccc12`, the MIC99 (Staphylococcus aureus [1]) was 11.6 µM (≈ 6.31 µg/mL), the MIC99 (Staphylococcus aureus [2]) was 6.23 µM (≈ 3.39 µg/mL) and the MIC99 (Staphylococcus aureus [3]) was 9.06 µM (≈ 4.94 µg/mL).

Compound `CCCNc1c2ccccc2nc2cc(C(=O)N3CCN(C)CC3)ccc12` has an MIC99 (Staphylococcus aureus [1]) of over 100 µM, an MIC99 (Staphylococcus aureus [2]) of over 100 µM and an MIC99 (Staphylococcus aureus [3]) of over 100 µM. For the same compound, the Activity (Nucleic Acid) was “Active”.

Compound `CCCCCCCCCCCCCNc1c2ccccc2nc2ccccc12` has an MIC99 (Staphylococcus aureus [1]) of 2.61 µM (≈ 0.983 µg/mL), an MIC99 (Staphylococcus aureus [2]) of 3.04 µM (≈ 1.14 µg/mL) and an MIC99 (Staphylococcus aureus [3]) of 2.8 µM (≈ 1.05 µg/mL).

Compound `CCCCCCCCCCCCNc1c2ccccc2nc2cc(C(=O)N3CCN(C)CC3)ccc12` has an MIC99 (Staphylococcus aureus [1]) of 4.8 µM (≈ 2.35 µg/mL), an MIC99 (Staphylococcus aureus [2]) of 6.28 µM (≈ 3.07 µg/mL) and an MIC99 (Staphylococcus aureus [3]) of 5.87 µM (≈ 2.87 µg/mL).

Compound `CCCCCCCCCNc1c2ccccc2nc2cc(C(=O)N3CCN(C)CC3)ccc12` has an MIC99 (Staphylococcus aureus [1]) of 35.5 µM (≈ 15.8 µg/mL), an MIC99 (Staphylococcus aureus [2]) of 22.7 µM (≈ 10.1 µg/mL) and an MIC99 (Staphylococcus aureus [3]) of 23.7 µM (≈ 10.6 µg/mL).

`CCCCCCCCCCCNc1c2ccccc2nc2cc(C(=O)N3CCN(C)CC3)ccc12` gave an MIC99 (Staphylococcus aureus [1]) of 6.23 µM (≈ 2.96 µg/mL), an MIC99 (Staphylococcus aureus [2]) of 3.61 µM (≈ 1.71 µg/mL) and an MIC99 (Staphylococcus aureus [3]) of 6.14 µM (≈ 2.91 µg/mL).

Compound `CCCCCCCCNc1c2ccccc2nc2cc(C(=O)N3CCN(C)CC3)ccc12` has an MIC99 (Staphylococcus aureus [1]) of over 100 µM, an MIC99 (Staphylococcus aureus [2]) of over 100 µM and an MIC99 (Staphylococcus aureus [3]) of over 100 µM.

Work on `CCCCCNc1c2ccccc2nc2ccccc12` yielded an MIC99 (Staphylococcus aureus [1]) of over 100 µM, an MIC99 (Staphylococcus aureus [2]) of over 100 µM and an MIC99 (Staphylococcus aureus [3]) of over 100 µM.

For `CCCCCCCCCNc1c2ccccc2nc2ccccc12`, the MIC99 (Staphylococcus aureus [1]) was 5.95 µM (≈ 1.91 µg/mL), the MIC99 (Staphylococcus aureus [2]) was 3.19 µM (≈ 1.02 µg/mL) and the MIC99 (Staphylococcus aureus [3]) was 3.59 µM (≈ 1.15 µg/mL).

In the case of `CCCCCCNc1c2ccccc2nc2cc(C(=O)N3CCN(C)CC3)ccc12`, the MIC99 (Staphylococcus aureus [1]) was over 100 µM, the MIC99 (Staphylococcus aureus [2]) was over 100 µM and the MIC99 (Staphylococcus aureus [3]) was over 100 µM.

With `CCCCCCCCNc1c2ccccc2nc2ccccc12` the MIC99 (Staphylococcus aureus [1]) was 10.3 µM (≈ 3.14 µg/mL), the MIC99 (Staphylococcus aureus [2]) was 8.54 µM (≈ 2.62 µg/mL) and the MIC99 (Staphylococcus aureus [3]) was 10.8 µM (≈ 3.31 µg/mL).

For `CCCCCCCCCCCCCNc1c2ccccc2nc2cc(C(=O)N3CCN(C)CC3)ccc12`, the MIC99 (Staphylococcus aureus [1]) was 3.57 µM (≈ 1.79 µg/mL), the MIC99 (Staphylococcus aureus [2]) was 2.91 µM (≈ 1.46 µg/mL) and the MIC99 (Staphylococcus aureus [3]) was 3.07 µM (≈ 1.54 µg/mL).

Work on `CCCCCCCCCCCNc1c2ccccc2nc2ccccc12` yielded an MIC99 (Staphylococcus aureus [1]) of 3.81 µM (≈ 1.33 µg/mL), an MIC99 (Staphylococcus aureus [2]) of 2.01 µM (≈ 0.701 µg/mL) and an MIC99 (Staphylococcus aureus [3]) of 2.73 µM (≈ 0.951 µg/mL).

Compound `CCCCNc1c2ccccc2nc2ccccc12` has an MIC99 (Staphylococcus aureus [1]) of over 100 µM, an MIC99 (Staphylococcus aureus [2]) of over 100 µM and an MIC99 (Staphylococcus aureus [3]) of over 100 µM.
